Assays:
[1] = system: FDRG mRNA in NIH3T3 fibroblasts stably expressing PPARγ; assay: Northern blot of FDRG mRNA in NIH3T3 fibroblasts stably expressing PPARγ; format: cell-based, murine
Method: NIH3T3 fibroblasts stably expressing PPARγ were treated with 10 μg/ml pioglitazone for 0, 2, and 4 hours.

[2] = system: Male Zucker diabetic fatty (fa/fa) rats; assay: Chronic troglitazone treatment of Zucker diabetic fatty rats, Northern blots of white adipose tissue; format: in vivo, rat; conditions: 6 mg/kg/day in food, after 4 and 20 weeks of treatment
Method: This experiment describes analysis of FDRG mRNA levels in rats following chronic troglitazone treatment to determine if FDRG expresion is regulated by PPARγ in vivo. Male Zucker diabetic fatty (fa/fa) rats were treated with 6 mg/kg/day (1.2% w/v) troglitazone or placebo admixed with food starting at 6 weeks of age and continuing until 26 weeks. […] Northern blots were performed on RNA isolated from white adipose tissue of treated and untreated animals, four from each group, after 4 and 20 weeks of treatment. […] This was true even when normalized to aP2, a fat cell marker. Glut4 mRNA was also found to be elevated, in agreement with published reports by other groups. Ribosomal-associated 36B4 served as a loading control.

lean or ob/ob mice = assay: Intraperitoneal leptin administration versus pair-fed mice, FDRG expression in brown fat; format: in vivo, mouse; conditions: 12.5 mg/kg leptin i.p. twice daily
Method: In this study, 10 week old lean or ob/ob mice were divided into three groups. The first group was the control, intraperitoneally injected with 1.5 ml PBS twice daily. […] The third group, the pair-fed group, was diet restricted to match the amount of food intake by the leptin-injected group, and was also injected with PBS. The animals were sacrified at the end of one week. […] That may reflect a fundamental difference in leptin-induced dietary restriction versus externally imposed restriction, or may be consistent with a further downstream effect, e.g., leptin-mediated suppression of FDRG upregulation that would ordinarily result from reduced food intake.

C[C@@H]1C[C@@H]([C@H](O)CC2CC(=O)NC(=O)C2)C(=O)[C@@H](C)C1 [cycloheximide]
Effect on FDRG mRNA by itself ([1]; 5 μg/ml cycloheximide alone): causes a rise in FDRG mRNA | Effect of pre-treatment on pioglitazone induction of FDRG mRNA ([1]; pre-treatment with 5 μg/ml cycloheximide, then 10 μg/ml pioglitazone): does not block this induction

CCc1ccc(CCOc2ccc(CC3SC(=O)NC3=O)cc2)nc1 (stereo not drawn) [pioglitazone]
Increase in FDRG mRNA ([1]; 10 μg/ml pioglitazone, within two hours, versus untreated cells): ≥ 10 fold

Cc1c(C)c2c(c(C)c1O)CCC(C)(COc1ccc(CC3SC(=O)NC3=O)cc1)O2 (stereo not drawn) [troglitazone]
FDRG expression in vivo, upregulation versus controls [2]: 3-5 fold

leptin: a protein secreted by fat cells, metabolic hormone
Dietary intake (lean or ob/ob mice): decrease in dietary intake | FDRG expression in brown fat (rise seen with restriction of caloric intake) (lean or ob/ob mice; one week, versus pair-fed group): this rise is not seen

Source: US20050100940A1, “Novel FDRG protein and nucleic acid molecules and uses therefor” (Millennium Pharmaceuticals, Inc., priority 1998, published 2005)
